Reference: patent US9795626B2, “Cancer therapy using miRNAs” (THE UNIVERSITY OF WESTERN AUSTRALIA, priority 2012, dated 2017)
Values joined by “and” are separate entries in the source; they are usually repeats but may differ in a detail not shown here. Equal entries are not always repeated. Blank lines part the entries; values can stand above or below the molecule they belong to.

How the values were obtained:
A2058 melanoma cells [1] = test: Cell viability assay (MTS) after miRNA transfection, with or without drug; Bliss synergy analysis; settings: for EObs/EBliss: >1 = synergistic; for EBliss: fractional inhibition expected if exactly additive; for EObs: observed fractional inhibition of the combination; for cell viability, combination of miR-7-5p and drug compared to miR-NC: miR-7-5p 5 nM, suboptimal dose of drug (below the IC50) added 3 days post-transfection, 4 further days; for synergy of combination with miR-7-5p (Bliss additivism model): observed fractional inhibition greater than calculated additive inhibition
Procedure: (§1) Cells were seeded in 96-well plates at a density of 2.5×10^3 cells per well and transfected with miRNA precursor molecules as above. Cell viability was measured 5 days after transfection using CellTitre 96 Aqueous One Solution Cell Proliferation Assay Kit (MTS assay) and a FLUOstar OPTIMA microplate reader. For synergy analysis between drugs and miR-7-5p, cells were plated as above and drug or DMSO was added 3 days after transfection with miR-7-5p or miR-NC for 4 days, at which time cell viability was measured (7 days after transfection).
(§2) Statistical significance was calculated using Student's t test (one-tailed, unpaired) and the level of significance was set at p<0.05. Drug sensitivity (IC50) was calculated using GraphPad Software (GraphPad Prism, version 5.04). The Bliss additivism model was used for synergy analysis. […] Here, Ebliss is the fractional inhibition expected if the combination of miR-7-5p and drug B was exactly additive. If the experimentally measured fractional inhibition is greater than Ebliss, the combination is synergistic.

[2] = test system: melanoma cell lines (SK-MEL-28, WM266-4, MM96L and A2058); test: Drug sensitivity assay (cell viability after 4 days of drug); type: cell-based; settings: range over the melanoma cell lines
SK-MEL-28 melanoma cells = test: Cell viability assay (MTS) after miRNA transfection, with or without drug; Bliss synergy analysis; settings: for EObs/EBliss: >1 = synergistic; for EBliss: fractional inhibition expected if exactly additive; for EObs: observed fractional inhibition of the combination
Procedure: as §1, §2

ERK 1/2 = test: IGF-1-induced activation of ERK 1/2 signaling under NVP-AEW541 (data not shown); type: cell-based
Akt = test: IGF-1-induced activation of Akt signaling under NVP-AEW541 (data not shown); type: cell-based
[3] = test system: breast cancer cell line MCF-7; test: Drug sensitivity assay (cell viability after 4 days of drug); type: cell-based; settings: MCF-7 (positive control)
WM266-4 melanoma cells [4] = test: Cell viability assay (MTS) after miRNA transfection, with or without drug; Bliss synergy analysis; settings: for EObs: observed fractional inhibition of the combination
Procedure: as §1, §2

MM96L melanoma cells = test: as above; settings: for EObs: observed fractional inhibition of the combination
Procedure: as §1, §2

A2058 melanoma cells [5] = test: Drug sensitivity assay (cell viability after 4 days of drug); type: cell-based; settings: Homo sapiens, 96 h, A2058 (wild type p53)
WM266-4 melanoma cells [6] = test: as above; type: cell-based; settings: Homo sapiens, WM 266-4, 96 h, WM266-4 (wild type p53)
[7] = [miR-7-5p] 5 nM + [drug] 100 nM
[8] = [miR-7-5p] 5 nM + [drug] 5 μM, >1 = synergistic
[9] = [miR-7-5p] 5 nM + [drug] 5 μM, fractional inhibition expected if exactly additive
[10] = [miR-7-5p] 5 nM + [drug] 150 μM

SMILES: COc1cc([C@@H]2c3cc4c(cc3[C@H](O)[C@H]3COC(=O)[C@@H]23)OCO4)cc(OC)c1OC [PPP, picropodophyllin]
- EObs/EBliss (A2058 melanoma cells [1]; [7]): 1.48 and 1.03 and 1.18
- EBliss (A2058 melanoma cells [1]; [7]): 0.447 and 0.684 and 0.420
- EObs (A2058 melanoma cells [1]; [7]): 0.663 and 0.704 and 0.496
- cell viability, combination of miR-7-5p and drug compared to miR-NC (A2058 melanoma cells [1]): significant reduction
- synergy of combination with miR-7-5p (Bliss additivism model) (A2058 melanoma cells [1]): synergistic
- IC50 ([2]; 96 h): 0.15 to 0.3 µM
- EObs/EBliss (SK-MEL-28 melanoma cells; [7]): 1.80 and 1.30
- EBliss (SK-MEL-28 melanoma cells; [7]): 0.292 and 0.391
- EObs (SK-MEL-28 melanoma cells; [7]): 0.526 and 0.508

- IC50 [2]: 8.27 to 25.1 µM
- IC50 [3]: 1.5 µM
SMILES: Nc1ncnc2c1c(-c1cccc(OCc3ccccc3)c1)cn2C1CC(CN2CCC2)C1 (stereo not drawn) [NVP-AEW541]
- EObs/EBliss (A2058 melanoma cells [1]; [miR-7-5p] 5 nM + [drug] 5 μM): 1.10 and 1.20
- EBliss (A2058 melanoma cells [1]; [miR-7-5p] 5 nM + [drug] 5 μM): 0.769 and 0.720
- EObs (A2058 melanoma cells [1]; [miR-7-5p] 5 nM + [drug] 5 μM): 0.846 and 0.866
- cell viability, combination of miR-7-5p and drug compared to miR-NC (A2058 melanoma cells [1]): significant reduction
- synergy of combination with miR-7-5p (Bliss additivism model) (A2058 melanoma cells [1]): synergistic
- IGF-1-induced activation of ERK 1/2 signaling pathway (ERK 1/2; MCF-7 breast cancer cells): attenuated
- ERK 1/2 activity (IGF-1-induced) (ERK 1/2; melanoma cell lines): persistence of ERK 1/2 activity
- IGF-1-induced activation of Akt signaling pathway (Akt; MCF-7 breast cancer cells): attenuated
- Akt activity (IGF-1-induced) (Akt; melanoma cell lines): abrogated
- EObs/EBliss (WM266-4 melanoma cells [4]; [8]): 1.06
- EBliss (WM266-4 melanoma cells [4]; [9]): 0.715
- EObs (WM266-4 melanoma cells [4]; [miR-7-5p] 5 nM + [drug] 5 μM): 0.757
- EObs/EBliss (MM96L melanoma cells; [8]): 1.06
- EBliss (MM96L melanoma cells; [9]): 0.515
- EObs (MM96L melanoma cells; [miR-7-5p] 5 nM + [drug] 5 μM): 0.547
- EObs/EBliss (SK-MEL-28 melanoma cells; [miR-7-5p] 5 nM + [drug] 5 μM): 1.24 and 1.17
- EBliss (SK-MEL-28 melanoma cells; [miR-7-5p] 5 nM + [drug] 5 μM): 0.474 and 0.265
- EObs (SK-MEL-28 melanoma cells; [miR-7-5p] 5 nM + [drug] 5 μM): 0.588 and 0.309

- IC50 (A2058 melanoma cells [5]): 167 µM
- IC50 (WM266-4 melanoma cells [6]): 73.1 µM
SMILES: Cn1nnc2c(C(N)=O)ncn2c1=O [TMZ, temozolomide]
- EObs (A2058 melanoma cells [1]; [miR-7-5p] 5 nM + [drug] 50 μM): 0.680
- EObs (A2058 melanoma cells [1]; [10]): 0.811 and 0.633
- EObs (WM266-4 melanoma cells [4]; [miR-7-5p] 5 nM + [drug] 50 μM): 0.748 and 0.732
- EObs (MM96L melanoma cells; [10]): 0.747
- EObs (MM96L melanoma cells; [miR-7-5p] 5 nM + [drug] 500 μM): 0.864 and 0.878
